Laboratory results reported in publication PMC11528044 (Nature Communications, 2024).
Where two headings read alike, the source gives them in different places. Marks after values point to notes of the source that are not given here. Each block holds one compound with its values, some of them ahead of it.

How the values were obtained:
[1] = tested on: L. donovani strain 1S2D promastigotes (Ld1S WT and CYP5122A1 mutants); conditions: 48 hours; for EC50: read-out: EC50, promastigote growth
[2] = target: T1, LdCYP51 (Leishmania donovani, UniProt A0A3S7WRS7)
[3] = tested on: intracellular amastigotes; conditions: ref Wang et al. (ref. 45); cited from earlier work
[4] = target: T2, LdCYP5122A1 (Leishmania donovani, UniProt A0A3S7X0B6)
T2 sequence (A0A3S7X0B6 61-592): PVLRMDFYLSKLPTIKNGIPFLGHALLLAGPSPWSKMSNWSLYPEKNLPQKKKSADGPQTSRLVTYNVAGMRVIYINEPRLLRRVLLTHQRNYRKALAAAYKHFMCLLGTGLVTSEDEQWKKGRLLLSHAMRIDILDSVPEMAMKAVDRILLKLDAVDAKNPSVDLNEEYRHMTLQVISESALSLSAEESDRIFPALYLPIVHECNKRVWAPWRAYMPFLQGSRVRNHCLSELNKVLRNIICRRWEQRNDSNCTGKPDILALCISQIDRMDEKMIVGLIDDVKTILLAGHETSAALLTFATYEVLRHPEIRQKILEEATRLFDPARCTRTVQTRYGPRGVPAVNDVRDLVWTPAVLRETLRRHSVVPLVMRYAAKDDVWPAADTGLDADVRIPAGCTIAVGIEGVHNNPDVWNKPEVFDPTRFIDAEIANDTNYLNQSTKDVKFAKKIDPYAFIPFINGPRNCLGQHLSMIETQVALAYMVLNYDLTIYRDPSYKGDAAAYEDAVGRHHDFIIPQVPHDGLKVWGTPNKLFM

[5] = tested on: intracellular amastigotes of L. infantum; conditions: cited from earlier work; for EC50: read-out: EC50, elimination of intracellular amastigotes of L. infantum
[6] = target: T2, LdCYP5122A1; assay: biochemical; conditions: for inhibition at 100 µM: read-out: % inhibition of CYP5122A1 at 100 μM
[7] = tested on: L. donovani LV82 promastigotes; assay: microbe, parasite or virus in culture; conditions: Leishmania donovani, 72 h, read-out: EC50 (L. donovani)
[8] = target: T1, LdCYP51; assay: biochemical
[9] = tested on: intracellular L. major and L. amazonensis; conditions: 10 μM; cited from earlier work
[10] = target: L. donovani CYP51 (Leishmania donovani, UniProt A0A3S7WRS7); assay: UV-Vis difference binding spectra of ligands with purified recombinant CYP51
[11] = tested on: multiple strains of L. donovani and L. infantum promastigotes; conditions: 1 μg/mL; cited from earlier work
[12] = target: T3, L. donovani CYP5122A1 (Leishmania donovani, UniProt A0A3S7X0B6); assay: UV-Vis difference binding spectra of ligands with purified recombinant CYP5122A1
T3 sequence (A0A3S7X0B6 61-592): T2 sequence (A0A3S7X0B6 61-592)

[13] = tested on: L. donovani LV82 promastigote cultures; assay: Microscopic counts of LV82 promastigote cultures; format: cell-based, Leishmania donovani; conditions: LV82 promastigotes, cell counts daily for three days
[14] = tested on: intracellular L. donovani parasites; assay: Intracellular L. donovani in infected peritoneal macrophage assay; format: cell-based, Leishmania donovani; conditions: Supplementary Fig. 12
[15] = tested on: L. donovani strain 1S2D promastigotes (Ld1S WT and CYP5122A1 mutants); assay: microbe, parasite or virus in culture; conditions: Leishmania donovani, 48 h
[16] = tested on: sterol profile of LV82 promastigotes; assay: LC-MS/MS sterol analysis of inhibitor-treated LV82 promastigotes; format: cell-based, Leishmania donovani; conditions: 50 μM voriconazole vs. DMSO, 24 hr

T1 sequence (A0A3S7WRS7 32-480): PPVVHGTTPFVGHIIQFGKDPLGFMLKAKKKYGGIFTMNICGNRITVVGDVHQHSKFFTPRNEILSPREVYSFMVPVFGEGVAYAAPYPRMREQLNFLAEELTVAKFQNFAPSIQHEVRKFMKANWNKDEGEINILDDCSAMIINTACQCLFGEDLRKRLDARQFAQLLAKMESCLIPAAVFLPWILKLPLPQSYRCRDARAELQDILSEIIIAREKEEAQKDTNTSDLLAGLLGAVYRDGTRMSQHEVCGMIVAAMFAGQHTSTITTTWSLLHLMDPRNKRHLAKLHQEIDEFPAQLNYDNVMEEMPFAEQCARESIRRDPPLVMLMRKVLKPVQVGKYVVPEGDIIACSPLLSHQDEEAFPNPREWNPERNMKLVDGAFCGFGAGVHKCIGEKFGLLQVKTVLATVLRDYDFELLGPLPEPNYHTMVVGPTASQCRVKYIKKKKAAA
L. donovani CYP51, sequence (A0A3S7WRS7 32-480): as above

SMILES: CC(C)Oc1cc(NC(=N)c2ccccn2)ccc1-c1ccc(-c2ccc(NC(=N)c3ccccn3)cc2OC(C)C)o1 [DB766]
- EC50 ([1]; CYP5122A1 overexpressors): ~0.012 µM
- EC50 ([1]; WT and Ld22A1 + /‒): 0.001 to 0.004 µM
- % inhibition of LdCYP51 at 30 μM ([2]; 30 μM): <30% inhibition at 30 μM
- IC50 vs. intracellular amastigotes (printed in column EC50 (L. donovani)) [3]: 0.036^f μM
- Selectivity for CYP5122A1 over CYP51 [4]: > 30 fold
- IC50 ([4]; read-out: IC50 (LdCYP5122A1), mean ± standard deviation (n = 3)): 1 ± 0.1 µM

- IC50 [6]: 0.65 ± 0.08 µM
- SI (selectivity index) = IC50 against LdCYP5122A1/IC50 against LdCYP51 [4]: 8.0
- EC50 [7]: 5.6 ± 0.3 µM
- IC50 [8]: 0.081 ± 0.002 µM
SMILES: Clc1ccc(C(Cn2ccnc2)OCc2ccc(Sc3ccccc3)cc2)c(Cl)c1 (centres unmarked) [Fenticonazole]
- EC50 [5]: 2.9 ± 0.3 µM

SMILES: OC(Cn1cncn1)(Cn1cncn1)c1ccc(F)cc1F [Fluconazole]
- IC50 [6]: > 100 µM
- inhibition at 100 µM [6]: < 20%
- Inhibition of intracellular parasites [9]: < 50%
- Binding mode with CYP51 (difference binding spectrum) [10]: type II binding
- Growth compared with control [11]: > 80%
- Binding mode with CYP5122A1 (difference binding spectrum) [12]: no specific responses

- IC50 [6]: 43 ± 1 µM
- SI (selectivity index) = IC50 against LdCYP5122A1/IC50 against LdCYP51 [4]: 3.5
- IC50 [8]: 12 ± 1 µM
SMILES: CCCCCCCCCCCCCCCCOP(=O)([O-])OCC[N+](C)(C)C [Miltefosine]
- IC50 vs. intracellular amastigotes (printed in column EC50 (L. donovani)) [3]: 2.7^e μM

SMILES: NC[C@@H]1O[C@H](O[C@H]2[C@@H](O)[C@H](O[C@@H]3[C@@H](O)[C@H](N)C[C@H](N)[C@H]3O[C@H]3O[C@H](CO)[C@@H](O)[C@H](O)[C@H]3N)O[C@@H]2CO)[C@H](N)[C@@H](O)[C@@H]1O [Paromomycin]
- IC50 vs. intracellular amastigotes (printed in column EC50 (L. donovani)) [3]: >50^e μM

SMILES: CC[C@@H]([C@H](C)O)n1ncn(-c2ccc(N3CCN(c4ccc(OC[C@@H]5CO[C@@](Cn6cncn6)(c6ccc(F)cc6F)C5)cc4)CC3)cc2)c1=O [Posaconazole]
- Concentration needed to inhibit growth further ([1]; Ld1S WT, bi-phasic response): more than 12 μM
- Leishmanicidal vs. leishmanistatic effect [13]: leishmanistatic effect
- Binding mode with CYP51 (difference binding spectrum) [10]: type II binding
- Binding mode with CYP5122A1 (difference binding spectrum) [12]: type II-like binding
- Effect on intracellular L. donovani parasites [14]: more effective than fluconazole
- EC50 ([15]; read-out: Concentration sufficient to reach EC50): 0.1 µM
- EC50 ([15]; read-out: EC50, promastigote growth): ~25 µM

- IC50 [6]: 1.1 ± 0.2 µM
- SI (selectivity index) = IC50 against LdCYP5122A1/IC50 against LdCYP51 [4]: 20
- EC50 [7]: 9.5 ± 0.6 µM
- IC50 [8]: 0.054 ± 0.008 µM
SMILES: Clc1ccc(C(Cn2ccnc2)OCc2ccsc2Cl)c(Cl)c1 (centres unmarked) [Tioconazole]
- EC50 [5]: 4 ± 0.2 µM

SMILES: C[C@@H](c1ncncc1F)[C@](O)(Cn1cncn1)c1ccc(F)cc1F [Voriconazole]
- EC50, elimination of intracellular amastigotes of L. infantum [5]: failed
- Selectivity for CYP51 over CYP5122A1 [2]: > 1176 fold
- IC50 [6]: > 100 µM
- inhibition at 100 µM [6]: < 28%
- Inhibition of intracellular parasites [9]: < 50%
- SI (selectivity index) = IC50 against LdCYP5122A1/IC50 against LdCYP51 [4]: >1176
- Binding mode with CYP51 (difference binding spectrum) [10]: type II binding
- Binding mode with CYP5122A1 (difference binding spectrum) [12]: no specific responses
- EC50 [7]: > 100 µM
- IC50 [8]: 0.085 ± 0.017 µM
- 4,14-Dimethylzymosterol level normalized to DMSO-treated parasites [16]: 17 ± 2
- 4CH2OH-LS level normalized to DMSO-treated parasites [16]: 0.83 ± 0.09
- 5-Dehydroepisterol level normalized to DMSO-treated parasites [16]: 0.078 ± 0.043
- 7-Dehydrodesmosterol level normalized to DMSO-treated parasites [16]: 0^d,**
- 14-Methylfecosterol level normalized to DMSO-treated parasites [16]: Accumulated^a,***
- 14-Methylzymosterol level normalized to DMSO-treated parasites [16]: 8.0 ± 1.0
- Cholesterol (exogenous) level normalized to DMSO-treated parasites [16]: 0.88 ± 0.07
- Ergosta-5,7-dienol level normalized to DMSO-treated parasites [16]: 0.39 ± 0.11
- Ergostatetraenol level normalized to DMSO-treated parasites [16]: 0.086 ± 0.027
- Ergosterol level normalized to DMSO-treated parasites [16]: 0.30 ± 0.08
- FF-MAS level normalized to DMSO-treated parasites [16]: Not detected
- Lanosterol level normalized to DMSO-treated parasites [16]: 1.6 ± 0.2
- T-MAS level normalized to DMSO-treated parasites [16]: Not detected
- Zymosterol level normalized to DMSO-treated parasites ([16]; not separated from cholesta-7,24-dienol): 0.067 ± 0.034
- 4-Methylzymosterol level normalized to DMSO-treated parasites ([16]; not separated from episterol and fecosterol): 0.18 ± 0.06
